Laboratory results: patent publication US20250346585A1 (Alexion Pharmaceuticals, Inc., priority 2022, published 2025)
pIC50: −log10 of the molar value.

Biological target: Human complement C1s enzyme (Homo sapiens (Human), UniProt P09871)
Test: Human C1s enzyme assay
Type: biochemical
Details: Human complement C1s enzyme 1.16 nM, substrate Z-L-Lys-SBzl 100 μM, assay of Example 3; read-out: IC50 (Stars)
Outline: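 IC50 derived by nonlinear regression of rate versus concentration, with rate taken from A405 kinetics (30 s intervals, 30 min) after adding 100 μM each Z-L-Lys-SBzl and DTNB. C1s from human serum, 1.16 nM, exposed to compound for 5 min at RT beforehand; buffer 50 mM Tris, 1 M NaCl, pH 7.5.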

Human complement C1s enzyme, sequence (P09871 438-688 limits assumed): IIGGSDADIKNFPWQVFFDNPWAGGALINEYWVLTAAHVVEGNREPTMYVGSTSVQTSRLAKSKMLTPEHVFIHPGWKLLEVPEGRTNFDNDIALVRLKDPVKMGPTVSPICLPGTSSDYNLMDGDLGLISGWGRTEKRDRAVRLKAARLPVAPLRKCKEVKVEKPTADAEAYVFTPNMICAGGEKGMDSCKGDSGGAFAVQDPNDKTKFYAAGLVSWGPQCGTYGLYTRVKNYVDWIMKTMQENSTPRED
Human complement C1s enzyme, sequence (P09871 16-437 partner limits assumed): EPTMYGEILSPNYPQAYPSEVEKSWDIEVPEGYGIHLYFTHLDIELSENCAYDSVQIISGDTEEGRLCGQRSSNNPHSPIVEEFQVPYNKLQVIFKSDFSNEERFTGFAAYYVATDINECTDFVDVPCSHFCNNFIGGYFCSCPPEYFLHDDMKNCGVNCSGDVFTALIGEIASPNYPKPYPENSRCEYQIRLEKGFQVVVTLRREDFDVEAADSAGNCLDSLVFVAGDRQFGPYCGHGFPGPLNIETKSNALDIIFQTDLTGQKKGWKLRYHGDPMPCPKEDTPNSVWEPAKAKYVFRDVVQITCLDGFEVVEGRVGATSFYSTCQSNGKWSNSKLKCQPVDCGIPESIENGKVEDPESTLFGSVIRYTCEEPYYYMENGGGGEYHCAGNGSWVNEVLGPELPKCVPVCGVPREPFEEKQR

SMILES	pIC50
C[C@@H](NC(=O)[C@@H]1C[C@@H](S(C)(=O)=O)CN1C(=O)CNC(=O)c1ccc2c(c1)C(F)(F)c1ccccc1-2)c1cc(C(=N)N)cs1 [Compound 265, (2S,4R)—N—((R)-1-(4-carbamimidoylthiophen-2-yl)ethyl)-1-((9,9-difluoro-9H-fluorene-2-carbonyl)glycyl)-4-(methylsulfonyl)pyrrolidine-2-carboxamide]	> 7.00
N=C(N)c1csc(CNC(=O)[C@@H]2CC3(CN2C(=O)CNC(=O)c2ccc(-c4ccncc4F)cc2)OCCO3)c1 [Compound 266, (S)—N-((4-carbamimidoylthiophen-2-yl)methyl)-7-((4-(3-fluoropyridin-4-yl)benzoyl)glycyl)-1,4-dioxa-7-azaspiro[4.4]nonane-8-carboxamide]	> 7.00
C[C@@H](NC(=O)[C@@H]1C[C@]2(CN3CCOCC3)C[C@@H]2N1C(=O)CNC(=O)c1ccc2c(c1)-c1ccccc1C2(F)F)c1cc(C(=N)N)cs1 [Compound 267, (1S,3S,5S)—N—((R)-1-(4-carbamimidoylthiophen-2-yl)ethyl)-2-((9,9-difluoro-9H-fluorene-3-carbonyl)glycyl)-5-(morpholinomethyl)-2-azabicyclo [3.1.0]hexane-3-carboxamide]	> 7.00
C[C@@H](NC(=O)[C@@H]1C[C@@](C)(F)CN1C(=O)CNC(=O)c1ccc2c(c1)-c1ccccc1C2(F)F)c1cc(C(=N)N)cs1 [Compound 268, (2S,4R)—N—((R)-1-(4-carbamimidoylthiophen-2-yl)ethyl)-1-((9,9-difluoro-9H-fluorene-3-carbonyl)glycyl)-4-fluoro-4-methylpyrrolidine-2-carboxamide]	> 7.00
CC(=O)NCCNC[C@@]1(F)C[C@@H](C(=O)N[C@H](C)c2cc(C(=N)N)cs2)N(C(=O)CNC(=O)c2ccc3c(c2)-c2ccccc2C3(F)F)C1 [Compound 269, (2S,4S)-4-(((2-acetamidoethyl)amino)methyl)-N—((R)-1-(4-carbamimidoylthiophen-2-yl)ethyl)-1-((9,9-difluoro-9H-fluorene-3-carbonyl)glycyl)-4-fluoropyrrolidine-2-carboxamide]	> 7.00
C[C@@H](NC(=O)[C@@H]1CC(=C(F)F)CN1C(=O)CNC(=O)c1ccc2c(c1)-c1ccccc1C2(F)F)c1cc(C(=N)N)cs1 [Compound 270, (S)—N—((R)-1-(4-carbamimidoylthiophen-2-yl)ethyl)-1-((9,9-difluoro-9H-fluorene-3-carbonyl)glycyl)-4-(difluoromethylene)pyrrolidine-2-carboxamide]	> 7.00
C[C@@H](NC(=O)[C@@H]1CC2(CN1C(=O)CNC(=O)c1ccc3c(c1)Oc1ccccc1S3)OCCO2)c1cc(C(=N)N)cs1 [Compound 271, (S)—N—((R)-1-(4-carbamimidoylthiophen-2-yl)ethyl)-7-((phenoxathiine-3-carbonyl)glycyl)-1,4-dioxa-7-azaspiro[4.4]nonane-8-carboxamide]	> 7.00
C[C@@H](NC(=O)[C@@H]1CC2(CN1C(=O)CNC(=O)c1ccc(O)cc1)OCCO2)c1cc(C(=N)N)cs1 [Compound 272, (S)—N—((R)-1-(4-carbamimidoylthiophen-2-yl)ethyl)-7-((4-hydroxybenzoyl)glycyl)-1,4-dioxa-7-azaspiro[4.4]nonane-8-carboxamide]	> 7.00
N=C(N)c1csc(CNC(=O)[C@@H]2CC3(CNC3)CN2C(=O)CNC(=O)CCCOc2ccccc2)c1 [Compound 273, (S)—N-((4-carbamimidoylthiophen-2-yl)methyl)-6-((4-phenoxybutanoyl)glycyl)-2,6-diazaspiro[3.4]octane-7-carboxamide]	> 7.00
C[C@@H](NC(=O)[C@@H]1C[C@]2(Cn3ccnn3)C[C@@H]2N1C(=O)CNC(=O)c1ccc2c(c1)-c1ccccc1C2(F)F)c1cc(C(=N)N)cs1 [Compound 274, (1S,3S,5S)-5-((1H-1,2,3-triazol-1-yl)methyl)-N—((R)-1-(4-carbamimidoylthiophen-2-yl)ethyl)-2-((9,9-difluoro-9H-fluorene-3-carbonyl)glycyl)-2-azabicyclo[3.1.0]hexane-3-carboxamide]	> 7.00
C[C@@H](NC(=O)[C@@H]1C[C@]2(C)C[C@@H]2N1C(=O)CNC(=O)c1ccc(Oc2ccccc2)cc1)c1cc(CC(=N)N)cs1 [Compound 276, (1S,3S,5S)—N—((R)-1-(4-(2-amino-2-iminoethyl)thiophen-2-yl)ethyl)-5-methyl-2-((4-phenoxybenzoyl)glycyl)-2-azabicyclo[3.1.0]hexane-3-carboxamide]	> 7.00
COC1c2ccccc2-c2cc(C(=O)NCC(=O)N3CC4(C[C@H]3C(=O)N[C@H](C)c3cc(C(=N)N)cs3)OCCO4)ccc21 (stereo partly drawn) [Compound 277, (8S)—N—((R)-1-(4-carbamimidoylthiophen-2-yl)ethyl)-7-((9-methoxy-9H-fluorene-3-carbonyl)glycyl)-1,4-dioxa-7-azaspiro[4.4]nonane-8-carboxamide]	> 7.00
CO[C@@H]1C[C@@H](C(=O)N[C@H](C)c2cc(C(=N)N)cs2)N(C(=O)CNC(=O)c2ccc3cc4ccccc4cc3c2)C1 [Compound 278, (2S,4R)-1-((anthracene-2-carbonyl)glycyl)-N—((R)-1-(4-carbamimidoylthiophen-2-yl)ethyl)-4-methoxypyrrolidine-2-carboxamide]	> 7.00
C[C@@H](NC(=O)[C@@H]1CC2(CN1C(=O)CNC(=O)c1ccc3c(c1)oc1ccccc13)OCCO2)c1cc(C(=N)N)cs1 [Compound 279, (S)—N—((R)-1-(4-carbamimidoylthiophen-2-yl)ethyl)-7-((dibenzo[b,d]furan-3-carbonyl)glycyl)-1,4-dioxa-7-azaspiro[4.4]nonane-8-carboxamide]	> 7.00

Next, values leading:

pIC50	SMILES
> 7.00	CC(C)S(=O)(=O)[C@@H]1C[C@@H](C(=O)N[C@H](C)c2cc(C(=N)N)cs2)N(C(=O)CNC(=O)c2ccc3c(c2)-c2ccccc2C3(F)F)C1 [Compound 280, (2S,4R)—N—((R)-1-(4-carbamimidoylthiophen-2-yl)ethyl)-1-((9,9-difluoro-9H-fluorene-3-carbonyl)glycyl)-4-(isopropylsulfonyl)pyrrolidine-2-carboxamide]
> 7.00	C[C@@H](NC(=O)[C@@H]1C[C@]2(Cn3cncn3)C[C@@H]2N1C(=O)CNC(=O)c1ccc2c(c1)-c1ccccc1C2(F)F)c1cc(C(=N)N)cs1 [Compound 281, (1S,3S,5S)-5-((1H-1,2,4-triazol-1-yl)methyl)-N—((R)-1-(4-carbamimidoylthiophen-2-yl)ethyl)-2-((9,9-difluoro-9H-fluorene-3-carbonyl)glycyl)-2-azabicyclo[3.1.0]hexane-3-carboxamide]
< 6.00	O=C(NCC(=O)N1CC2(C[C@H]1C(=O)NCc1cc(Nc3nccs3)cs1)OCCO2)c1ccc(Oc2ccc(F)cc2)cc1 [Compound 282, (S)-7-((4-(4-fluorophenoxy)benzoyl)glycyl)-N-((4-(thiazol-2-ylamino)thiophen-2-yl)methyl)-1,4-dioxa-7-azaspiro[4.4]nonane-8-carboxamide]
< 6.00	O=C(NCC(=O)N1CC2(C[C@H]1C(=O)NCc1cc(Nc3ncc[nH]3)cs1)OCCO2)c1ccc(Oc2ccc(F)cc2)cc1 [Compound 283, (S)-N-((4-((1H-imidazol-2-yl)amino)thiophen-2-yl)methyl)-7-((4-(4-fluorophenoxy)benzoyl)glycyl)-1,4-dioxa-7-azaspiro[4.4]nonane-8-carboxamide]
< 6.00	O=C(NCC(=O)N1CC2(C[C@H]1C(=O)NCc1cc(NC3=NCCS3)cs1)OCCO2)c1ccc(Oc2ccc(F)cc2)cc1 [Compound 284, (S)-N-((4-((4,5-dihydrothiazol-2-yl)amino)thiophen-2-yl)methyl)-7-((4-(4-fluorophenoxy)benzoyl)glycyl)-1,4-dioxa-7-azaspiro[4.4]nonane-8-carboxamide]
< 6.00	Nc1cccc(Nc2csc(CNC(=O)[C@@H]3CC4(CN3C(=O)CNC(=O)c3ccc(Oc5ccc(F)cc5)cc3)OCCO4)c2)n1 [Compound 285, (S)-N-((4-((6-aminopyridin-2-yl)amino)thiophen-2-yl)methyl)-7-((4-(4-fluorophenoxy)benzoyl)glycyl)-1,4-dioxa-7-azaspiro[4.4]nonane-8-carboxamide]
< 6.00	CS(=O)(=O)N(c1csc(CNC(=O)[C@@H]2CC3(CN2C(=O)CNC(=O)c2ccc(Oc4ccc(F)cc4)cc2)OCCO3)c1)S(C)(=O)=O [Compound 286, (S)-7-((4-(4-fluorophenoxy)benzoyl)glycyl)-N-((4-((N-(methylsulfonyl)methyl)sulfonamido)thiophen-2-yl)methyl)-1,4-dioxa-7-azaspiro[4.4]nonane-8-carboxamide]
> 7.00	N=C(N)c1csc(CNC(=O)[C@@H]2CC3(CN2C(=O)CN2Cc4ccc(-c5ccc(F)cc5F)cc4C2)OCCO3)c1 [Compound 287, (S)—N-((4-carbamimidoylthiophen-2-yl)methyl)-7-(2-(5-(2,4-difluorophenyl)isoindolin-2-yl)acetyl)-1,4-dioxa-7-azaspiro[4.4]nonane-8-carboxamide]
< 6.00	CC(=O)Nc1csc(CNC(=O)[C@@H]2CC3(CN2C(=O)CNC(=O)c2ccc(Oc4ccc(F)cc4)cc2)OCCO3)c1 [Compound 288, (S)-N-((4-acetamidothiophen-2-yl)methyl)-7-((4-(4-fluorophenoxy)benzoyl)glycyl)-1,4-dioxa-7-azaspiro[4.4]nonane-8-carboxamide]
6.00 to 7.00	O=C(NCC(=O)N1CC2(C[C@H]1C(=O)NCc1cc(N3CCCC3)cs1)OCCO2)c1ccc(Oc2ccc(F)cc2)cc1 [Compound 289, (S)-7-((4-(4-fluorophenoxy)benzoyl)glycyl)-N-((4-(pyrrolidin-1-yl)thiophen-2-yl)methyl)-1,4-dioxa-7-azaspiro[4.4]nonane-8-carboxamide]
> 7.00	C[C@H](NC(=O)c1ccc(-c2ccc(F)cc2F)cc1)C(=O)N1CC2(C[C@H]1C(=O)NCc1cc(C(=N)N)cs1)OCCO2 [Compound 291, (S)—N-((4-carbamimidoylthiophen-2-yl)methyl)-7-((2′,4′-difluoro-[1,1′-biphenyl]-4-carbonyl)-L-alanyl)-1,4-dioxa-7-azaspiro[4.4]nonane-8-carboxamide]
